Experimental data reported in patent publication US20250154138A1, “Small Molecule IL-17A Modulators” (BeiGene, Ltd., priority 2022, published 2025).

Columns and labels:
[1] = test system: IL-17-induced GROα secretion from HT-29 cells; assay: GROα release assay in human colorectal adenocarcinoma epithelial cell (HT-29, ELISA); format: cell-based; conditions: Homo sapiens, HT-29, 48 h, 10 ng/mL IL-17A, highest concentration 10 μM, read-out: Cellular assay HT29 cell/CXCL1 IC50
Outline: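 HT-29 cells were exposed 48 h at 37°C to IL-17A (final 10 ng/mL) preincubated 15 min with compound (4-fold dilutions, top 10 μM). Secreted GROα was quantified by ELISA against a standard curve, and IC50 obtained by four-parameter fitting.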

[2] = biological target: human IL-17A / human IL-17RA (Homo sapiens (Human), UniProt Q16552); assay: Human IL-17A biochemical assay (HTRF, blocking of IL-17A binding to IL-17RA); conditions: 0.4 nM IL-17A, 0.3 nM IL-17RA, max compound concentration 10 uM
Outline: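 Inhibition of IL-17A binding to IL-17RA is measured by HTRF using 0.4 nM IL-17A, 0.3 nM IL-17RA and a 3 h compound pre-incubation at room temperature, pH 7.5. IC50 values come from four-parameter logistic fitting.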

Chain of human IL-17A / human IL-17RA (Q16552 24-155): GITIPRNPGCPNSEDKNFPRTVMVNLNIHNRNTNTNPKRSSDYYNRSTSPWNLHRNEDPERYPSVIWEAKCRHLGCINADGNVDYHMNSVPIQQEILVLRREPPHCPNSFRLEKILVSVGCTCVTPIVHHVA

SMILES	IC50 [1]	IC50 [2]
CNC(=O)C1(N2CC3(CC3)CNC2=O)Cc2ccc(NC(=O)[C@@H](NC(=O)c3ccnn3C3CC(O)C3)C3CCCCC3)cc2C1 (stereo partly drawn) [Example 132, N-((1S)-1-cyclohexyl-2-((2-(methylcarbamoyl)-2-(6-oxo-5,7-diazaspiro[2.5]octan-5-yl)-2,3-dihydro-1H-inden-5-yl)amino)-2-oxoethyl)-1-(3-hydroxycyclobutyl)-1H-pyrazole-5-carboxamide]	178 nM	66 nM
CC(C)[C@@H]1CN(C2(C(=O)N(C)C)Cc3ccc(NC(=O)[C@@H](NC(=O)c4ccnn4C)C4CCCCC4)cc3C2)C(=O)N1 (stereo partly drawn) [Example 135, N-((1S)-1-cyclohexyl-2-((2-(dimethylcarbamoyl)-2-((R)-4-isopropyl-2-oxoimidazolidin-1-yl)-2,3-dihydro-1H-inden-5-yl)amino)-2-oxoethyl)-1-methyl-1H-pyrazole-5-carboxamide]	245 nM	186 nM
CC(C)[C@@H]1CN(C2(C(=O)N3CCC(O)C3)Cc3ccc(NC(=O)[C@@H](NC(=O)c4ccnn4C)C4CCCCC4)cc3C2)C(=O)N1 (stereo partly drawn) [Example 136, N-((1S)-1-cyclohexyl-2-((2-(3-hydroxypyrrolidine-1-carbonyl)-2-((R)-4-isopropyl-2-oxoimidazolidin-1-yl)-2,3-dihydro-1H-inden-5-yl)amino)-2-oxoethyl)-1-methyl-1H-pyrazole-5-carboxamide]	279 nM	108 nM
CNC(=O)C1(N2CC3(CC3)CNC2=O)Cc2cc3nc([C@@H](NC(=O)c4ccnn4C)C4CCCCC4)[nH]c3cc2C1 [Example 137, 2-((S)-cyclohexyl(1-methyl-1H-pyrazole-5-carboxamido)methyl)-N-methyl-6-(6-oxo-5,7-diazaspiro[2.5]octan-5-yl)-1,5,6,7-tetrahydroindeno[5,6-d]imidazole-6-carboxamide]	1490 nM	413 nM
CNC(=O)C1(N2CC3(CC3)CNC2=O)Cc2ccc(NC(=O)[C@@H](NC(=O)c3nonc3C)C3CCC(F)(F)CC3)cc2C1 (stereo partly drawn) [Example 138, N-((1S)-1-(4,4-difluorocyclohexyl)-2-((2-(methylcarbamoyl)-2-(6-oxo-5,7-diazaspiro[2.5]octan-5-yl)-2,3-dihydro-1H-inden-5-yl)amino)-2-oxoethyl)-4-methyl-1,2,5-oxadiazole-3-carboxamide]	101 nM	53.1 nM
CCC1CCC(C(NC(=O)c2ccnn2C)C(=O)Nc2ccc3c(c2)CC(C(=O)NC)(N2CC4(CC4)CNC2=O)C3)CC1 (stereo not drawn) [Example 139, N-(1-(4-ethylcyclohexyl)-2-((2-(methylcarbamoyl)-2-(6-oxo-5,7-diazaspiro[2.5]octan-5-yl)-2,3-dihydro-1H-inden-5-yl)amino)-2-oxoethyl)-1-methyl-1H-pyrazole-5-carboxamide]	21.9 nM	10 nM
CNC(=O)C1(N2CC3(CC3)CNC2=O)Cc2ccc(NC(=O)[C@@H](NC(=O)c3ccnn3C3CC3)C3CCCCC3)cc2C1 (stereo partly drawn) [Example 141, N-((1S)-1-cyclohexyl-2-((2-(methylcarbamoyl)-2-(6-oxo-5,7-diazaspiro[2.5]octan-5-yl)-2,3-dihydro-1H-inden-5-yl)amino)-2-oxoethyl)-1-cyclopropyl-1H-pyrazole-5-carboxamide]	41.1 nM	16 nM
CNC(=O)C1(N2CC3(CC3)CNC2=O)Cc2ccc(NC(=O)[C@@H](NC(=O)c3ccnn3C)C3CCC(F)(F)CC3)cc2C1 (stereo partly drawn) [Example 142, N-((1S)-1-(4,4-difluorocyclohexyl)-2-((2-(methylcarbamoyl)-2-(6-oxo-5,7-diazaspiro[2.5]octan-5-yl)-2,3-dihydro-1H-inden-5-yl)amino)-2-oxoethyl)-1-methyl-1H-pyrazole-5-carboxamide]	197 nM	107 nM
CNC(=O)C1(N2CC3(CC3)CNC2=O)Cc2ccc(NC(=O)C(NC(=O)c3ccnn3C)C3CCC(C(C)(F)F)CC3)cc2C1 (stereo not drawn) [Example 143, N-(1-(4-(1,1-difluoroethyl)cyclohexyl)-2-((2-(methylcarbamoyl)-2-(6-oxo-5,7-diazaspiro[2.5]octan-5-yl)-2,3-dihydro-1H-inden-5-yl)amino)-2-oxoethyl)-1-methyl-1H-pyrazole-5-carboxamide]	772 nM	163 nM
CNC(=O)C1(N2C(=O)NC3CCC2C3)Cc2ccc(NC(=O)[C@@H](NC(=O)c3ccnn3C)C3CCCCC3)cc2C1 (stereo partly drawn) [Example 144, N-((1S)-1-cyclohexyl-2-((2-(methylcarbamoyl)-2-(3-oxo-2,4-diazabicyclo[3.2.1]octan-2-yl)-2,3-dihydro-1H-inden-5-yl)amino)-2-oxoethyl)-1-methyl-1H-pyrazole-5-carboxamide]	182 nM	48.6 nM
CNC(=O)C1(N2CC3(CC3)CNC2=O)CCc2cc(NC(=O)[C@@H](NC(=O)c3ccnn3C)C3CCCCC3)sc2C1 (stereo partly drawn) [Example 145, N-((1S)-1-cyclohexyl-2-((6-(methylcarbamoyl)-6-(6-oxo-5,7-diazaspiro[2.5]octan-5-yl)-4,5,6,7-tetrahydrobenzo[b]thiophen-2-yl)amino)-2-oxoethyl)-1-methyl-1H-pyrazole-5-carboxamide]	454 nM	139 nM
Cn1nccc1C(=O)N[C@H](C(=O)Nc1ccc2c(c1)CC(N1C[C@@H](C(F)(F)F)NC1=O)C2)C1CCCCC1 (stereo partly drawn) [Example 146, N-((1S)-1-cyclohexyl-2-oxo-2-((2-((S)-2-oxo-4-(trifluoromethyl)imidazolidin-1-yl)-2,3-dihydro-1H-inden-5-yl)amino)ethyl)-1-methyl-1H-pyrazole-5-carboxamide]	768 nM	204 nM
CNC(=O)C1(N2CC3(CCCC3)CNC2=O)Cc2ccc(NC(=O)[C@@H](NC(=O)c3ccnn3C)C3CCCCC3)cc2C1 (stereo partly drawn) [Example 147, N-((1S)-1-cyclohexyl-2-((2-(methylcarbamoyl)-2-(8-oxo-7,9-diazaspiro[4.5]decan-7-yl)-2,3-dihydro-1H-inden-5-yl)amino)-2-oxoethyl)-1-methyl-1H-pyrazole-5-carboxamide]	61.8 nM	22.4 nM
COC(=O)C1(N2CC3(CC3)CNC2=O)Cc2ccc(NC(=O)C(NC(=O)c3ccnn3C)C3CCC(C(C)C)CC3)cc2C1 (stereo not drawn) [Example 148, methyl 5-(2-(4-isopropylcyclohexyl)-2-(1-methyl-1H-pyrazole-5-carboxamido)acetamido)-2-(6-oxo-5,7-diazaspiro[2.5]octan-5-yl)-2,3-dihydro-1H-indene-2-carboxylate]	164 nM	62 nM
CNC(=O)C1(N2C[C@@H](C(C)C)NC2=O)Cc2ccc(NC(=O)[C@@H](NC(=O)c3cccc(Oc4c(C)n[nH]c4C)c3)C3CCCCC3)cc2C1 (stereo partly drawn) [Example 149, 5-((S)-2-cyclohexyl-2-(3-((3,5-dimethyl-1H-pyrazol-4-yl)oxy)benzamido)acetamido)-2-((R)-4-isopropyl-2-oxoimidazolidin-1-yl)-N-methyl-2,3-dihydro-1H-indene-2-carboxamide]	44.3 nM	92 nM
COc1ccc(CNC(=O)C2(N3C[C@@H](C(C)C)NC3=O)Cc3ccc(NC(=O)[C@@H](NC(=O)c4ccnn4C)C4CCCCC4)cc3C2)cc1 (stereo partly drawn) [Example 150, N-((1S)-1-cyclohexyl-2-((2-((R)-4-isopropyl-2-oxoimidazolidin-1-yl)-2-((4-methoxybenzyl)carbamoyl)-2,3-dihydro-1H-inden-5-yl)amino)-2-oxoethyl)-1-methyl-1H-pyrazole-5-carboxamide]	46.5 nM	20 nM
CC(C)[C@@H]1CN(C2(C(=O)Nc3ccccc3)Cc3ccc(NC(=O)[C@@H](NC(=O)c4ccnn4C)C4CCCCC4)cc3C2)C(=O)N1 (stereo partly drawn) [Example 151, N-((1S)-1-cyclohexyl-2-((2-((R)-4-isopropyl-2-oxoimidazolidin-1-yl)-2-(phenylcarbamoyl)-2,3-dihydro-1H-inden-5-yl)amino)-2-oxoethyl)-1-methyl-1H-pyrazole-5-carboxamide]	99.6 nM	31 nM
CNC(=O)C1(N2CC3(CC3)CNC2=O)Cc2ccc(NC(=O)C(NC(=O)c3ccnn3C)C3CCC(C(C)C)CC3)cc2C1 (stereo not drawn) [Example 152, N-(1-(4-isopropylcyclohexyl)-2-((2-(methylcarbamoyl)-2-(6-oxo-5,7-diazaspiro[2.5]octan-5-yl)-2,3-dihydro-1H-inden-5-yl)amino)-2-oxoethyl)-1-methyl-1H-pyrazole-5-carboxamide]	31 nM	10 nM
CNC(=O)C1(N2CC3(CC3)CNC2=O)Cc2ccc(NC(=O)[C@@H](NC(=O)c3cccc(C#N)c3)C3CCCCC3)cc2C1 (stereo partly drawn) [Example 153, 5-((S)-2-(3-cyanobenzamido)-2-cyclohexylacetamido)-N-methyl-2-(6-oxo-5,7-diazaspiro[2.5]octan-5-yl)-2,3-dihydro-1H-indene-2-carboxamide]	258 nM	95 nM
CCn1nccc1C(=O)N[C@H](C(=O)Nc1ccc2c(c1)CC(C(=O)NC)(N1CC3(CC3)CNC1=O)C2)C1CCCCC1 (stereo partly drawn) [Example 154, N-((1S)-1-cyclohexyl-2-((2-(methylcarbamoyl)-2-(6-oxo-5,7-diazaspiro[2.5]octan-5-yl)-2,3-dihydro-1H-inden-5-yl)amino)-2-oxoethyl)-1-ethyl-1H-pyrazole-5-carboxamide]	71.4 nM	28 nM
CC(C)[C@@H]1CN(C2(C(=O)NC34CC5CC(CC(C5)C3)C4)Cc3ccc(NC(=O)[C@@H](NC(=O)c4ccnn4C)C4CCCCC4)cc3C2)C(=O)N1 (stereo partly drawn) [Example 155, N-((1S)-2-((2-(((3R,5R)-adamantan-1-yl)carbamoyl)-2-((R)-4-isopropyl-2-oxoimidazolidin-1-yl)-2,3-dihydro-1H-inden-5-yl)amino)-1-cyclohexyl-2-oxoethyl)-1-methyl-1H-pyrazole-5-carboxamide]	211 nM	129 nM
